Assay results: US5356920A, “Imidazol-2-yl derivatives of substituted bicyclic compounds” (priority 1990, dated 1994)

Key:
[1] = target: T1, acyl CoA:cholesterol acyltransferase (ACAT-EC 2.3.1.26) (Oryctolagus cuniculus, UniProt A0A5F9CPP4); assay: ACAT inhibition in microsomes from atherosclerotic rabbit thoracic aorta (intima media); assay type: biochemical; conditions: microsomes from atherosclerotic rabbit thoracic aortas; limits p = 0.95
T1 construct: microsomal preparations from atherosclerotic rabbit thoracic aorta (intima media); from tissue; host or cells: microsomes from atherosclerotic rabbit thoracic aorta (intima media)
T1 sequence (A0A5F9CPP4 1-555): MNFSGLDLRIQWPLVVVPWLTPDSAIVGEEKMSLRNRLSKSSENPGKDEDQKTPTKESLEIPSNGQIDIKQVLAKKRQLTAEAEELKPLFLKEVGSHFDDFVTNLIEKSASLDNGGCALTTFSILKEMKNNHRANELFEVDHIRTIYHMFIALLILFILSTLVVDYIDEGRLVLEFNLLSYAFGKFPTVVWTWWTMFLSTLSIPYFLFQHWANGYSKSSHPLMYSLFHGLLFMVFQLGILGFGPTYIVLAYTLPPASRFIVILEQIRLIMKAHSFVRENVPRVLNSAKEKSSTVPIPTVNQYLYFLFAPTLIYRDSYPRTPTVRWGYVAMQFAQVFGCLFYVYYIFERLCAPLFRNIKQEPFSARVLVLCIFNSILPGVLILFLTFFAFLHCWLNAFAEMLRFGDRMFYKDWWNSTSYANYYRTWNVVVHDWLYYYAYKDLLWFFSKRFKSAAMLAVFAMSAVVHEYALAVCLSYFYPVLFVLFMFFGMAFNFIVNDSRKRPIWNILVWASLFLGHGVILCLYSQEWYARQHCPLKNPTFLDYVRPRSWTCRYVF

[2] = orientative acute toxicity (LD50), single oral administration, assessed on the seventh day, mice; conditions: mouse, in vivo, nine hours food deprived
Protocol: The toxicity of the compounds of the invention is negligible, therefore they can be safely used in therapy. Nine hours food deprived mice and rats were treated orally with single administration of increasing doses, then housed and normally fed. The orientative acute toxicity (LD50) was assessed on the seventh day after the treatment, for instance a LD50 greater than 800 mg/kg was found in mice for the compound coded as FCE 27116.

[3] = target: T1, acyl CoA:cholesterol acyltransferase (ACAT-EC 2.3.1.26); conditions: Hudson H., Day A., Atherosclerosis (1982) 45, 109; cited from earlier work

| IC50 [1] [nM] | Compound | LD50 at 168 h [2] [mg/kg] | inhibitory activity in vitro (rabbit arterial microsomes) [3] |
| --- | --- | --- | --- |
| 85.1 | CC(C)c1cccc(C(C)C)c1NC(=O)C(C)(C)CCCOc1ccc2c(c1)C=C(c1nccn1C)C(CCc1ccccc1)O2 (racemic) [FCE 26734, (+-)-5-[2-(2-phenylethyl)-3-(1-methyl-1H-imidazol-2-yl)-2H-1-benzopyran-6-yl]oxy-2,2-dimethyl-N-(2,6-diisopropylphenyl)pentanamide] |  |  |
| 66.8 | CCOC(=O)C1(CCCOc2ccc3c(c2)C=C(c2nccn2C)C(CCc2ccccc2)O3)CCCC1 (racemic) [FCE 27051, ethyl (+-)-1-[3-(2-(2-phenylethyl)-3-(1-methyl-1H-imidazol-2-yl)-2H-1-benzopyran-6-yl)oxypropyl]cyclopentane-1-carboxylate] |  |  |
| 82.2 | CC(C)c1cccc(C(C)C)c1NC(=O)C(C)(C)CCCOc1ccc2c(c1)C=C(c1nccn1C)C(CCc1ccc(F)cc1F)O2 (racemic) [FCE 27113, (+-)-5-[2-(2-(2,4-difluorophenyl)ethyl)-3-(1-methyl-1H-imidazol-2-yl)-2H-1-benzopyran-6-yl)oxy-2,2-dimethyl-N-(2,6-diisopropylphenyl)pentanamide] |  |  |

The remaining lines, values behind:

| Compound | IC50 [1] [nM] | LD50 at 168 h [2] [mg/kg] | inhibitory activity in vitro (rabbit arterial microsomes) [3] |
| --- | --- | --- | --- |
| CCCC1Oc2ccc(OCCCC(C)(C)C(=O)OCC)cc2C=C1c1nccn1C (racemic) [FCE 25184, ethyl (+-)-5-[2-propyl-3-(1-methyl-1H-imidazol-2-yl)-2H-benzopyran-6-yl]oxy-2,2-dimethylpentanoate, reference compound] | 1060 |  |  |
| Cn1ccnc1C1=Cc2cc(OCCCC(C)(C)C(=O)NC3CCCCC3)ccc2OC1CCc1ccc(F)cc1 (racemic) [FCE 27116, (+-)-5-[2-(2-(4-fluorophenyl)ethyl)-3-(1-methyl-1H-imidazol-2-yl)-2H-1-benzopyran-6-yl]oxy-2,2-dimethyl-N-cyclohexylpentanamide] | 39.9 | > 800 |  |
| CC(C)(Oc1ccc(CCNC(=O)c2ccc(Cl)cc2)cc1)C(=O)O [Bezafibrate] |  |  | inhibitory activity in vitro (rabbit arterial microsomes) has been already demonstrated |
